Laboratory results: EP3446753B1, “NEW THERAPEUTIC USES OF PEPTIDES OF THE ADIPOKINETIC HORMONE FAMILY” (Mutlu, Oguz, priority 2017, dated 2019)
Structures can show the parent of a compound that is named as a salt. Square brackets hold non-standard residues; d marks the D form. Peptide text beside a SMILES is read from it. pGlu = O=C1CC[C@@H](C(=O)O)N1

Tests used:
Long Evans rats = assay: Active Allothetic Place Avoidance test (AAPA), MK-801 model; assay type: in vivo; conditions: for MK-801 (0.15 mg/kg) induced cognitive memory impairment effects: peptide 2 mg/kg administered subchronically + MK-801 0.15 mg/kg, summary statement; for reversal of MK-801 increased locomotion (total distance (m) moved) / reversal of MK-801 decreased maximum time of avoidance (s) / reversal of MK-801 increased number of entries to the shock sector / reversal of MK-801 increased number of shocks: peptide 2 mg/kg i.p. + MK-801 0.15 mg/kg i.p., compared to MK-801 alone; for reversal of MK-801 increased locomotion (total distance (m) moved): 4 days (subchronically)
Experimental: 3-4 month-old male rats of the Long Evans strain were used for the Active Allothetic Place Avoidance test and were obtained from the accredited breeding colony of the Institute of Physiology, Academy of Science, Prague. Rats were acclimatised for 7-10 days prior to testing, during which they were weighed twice and handled four times. Rats were housed in pairs in transparent plastic cages (30×30×40 cm) in an air-conditioned animal room with a constant temperature of 21 °C and with 12/12 light/dark cycle (lights on at 7:00). All animals received food and water ad libitum. All experiments respected the Guidelines of the European Union (86/609/EU) and the National Committee for the Care and Use of Laboratory Animals (Czech Republic) and were approved by the committee under the number: MEYSCR-27527/2012-31.
In the Active Allothetic Place Avoidance test, Long Evans rats were treated with Ani-AKH (1 and 2 mg/kg) (n=8), Lia-AKH (1 and 2 mg/kg) (n=8), Pht-HrTH (1 and 2 mg/kg) (n=8), MK-801 (0.15 mg/kg) (n=8), Ani-AKH (2 mg/kg)+MK-801 (0.15 mg/kg) (n=8), Lia-AKH (2 mg/kg)+MK-801 (0.15 mg/kg) (n=8), Pht-HrTH (2 mg/kg)+MK-801 (0.15 mg/kg) (n=8) or vehicle (control group=saline with 15% DMSO) (n= 8) for 4 days (subchronically). Ani-AKH, Lia-AKH and Pht-HrTH were administered intraperitoneally (i.p.) 60 min. before the Active Allothetic Place Avoidance test while MK-801 was administered (i.p.) 40 min. before the test in a volume of 2ml/kg body weight. Separate group of animals were used in each test. The doses of the drugs were chosen according to the previous studies (Mutlu et al. 2016).
(+)-MK-801 maleate ((5S,10R)-(+)-5-methyl-10,11-dihydro-5H-dibenzo(a, d)-cyclo-hepten-5,10-imine maleate) was obtained from Tocris Bioscience, United Kingdom. Anax imperator AKH (Ani-AKH), Libellula auripennis AKH (Lia-AKH) and Phormia-Terra hypertrehalosemic hormone (Pht-HrTH) were purchased from TRC (Toronto/Canada). MK-801 was dissolved in saline while AKH was dissolved in saline mixed with 15% DMSO. Saline with 15% DMSO was used as control group.
The Active Allothetic Place Avoidance Test is a spatial memory test that can determine the ability of animals to organize their behavior efficiently in both normal and pathological conditions. Successful performance in the test requires the rat to solve a conflict between two discordant subsets of spatial stimuli (extramaze and intramaze cues). It is believed that successful performance in the Active Allothetic Place Avoidance Test, where the rat has to differentiate between relevant and irrelevant stimuli, depends on the mode of information processing disturbed in schizophrenic patients (Bubenikova-Valesova et al., 2008b). The Active Allothetic Place Avoidance arena was described in detail in previous papers (Cimadevilla et al., 2001). Briefly, it consisted of a smooth metallic circular arena (82 cm in diameter), enclosed by a 30 cm high transparent Plexiglas wall. The arena was elevated 1 m above the floor of 4×5 m experimental room containing an abundance of extramaze landmarks. The arena together with the wall was rotated (1 rpm) by an electric motor placed underneath the arena disc. At the beginning of each training session, a rat was placed in the arena at a location opposite an imperceptible 60° to-be- avoided sector (shock sector), which was defined by the computer- based tracking system (iTrack, Biosignal Group, USA), located in an adjacent room. The arena rotation started immediately after placement of the rat. The location of the shock sector could be determined solely by its spatial relation to the distal orienting cues located in the room. Rats were wearing a light latex harness, to which an infrared light-emitting diode (LED) was attached between the rat's shoulders. Whenever the rat entered the to-be-avoided sector for more than 500 ms (millisecond), the tracking system delivered a mild, constant-current shock (50 Hz, 0.5 s, 0.4-0.7 mA) and counted an entrance. […]

[1] = tested on: Emperor dragonfly, Anax imperator; conditions: low concentrations of the synthetic peptide injected into the Emperor dragonfly; cited from earlier work
[2] = MK-801 0.15 mg/kg i.p. alone, 4 days, compared to control

Compound | MK-801 (0.15 mg/kg) induced cognitive memory impairment effects (Long Evans rats) | reversal of MK-801 increased locomotion (total distance (m) moved) (Long Evans rats) | reversal of MK-801 decreased maximum time of avoidance (s) (Long Evans rats; 4 days) | reversal of MK-801 increased number of entries to the shock sector (Long Evans rats; 4 days) | reversal of MK-801 increased number of shocks (Long Evans rats; 4 days) | haemolymph lipid concentration [1] | locomotion (total distance (m) moved) (Long Evans rats; [2]) | maximum time of avoidance (s) (Long Evans rats; [2]) | number of entries to the shock sector (Long Evans rats; [2]) | number of shocks (Long Evans rats; [2])
CC(C)[C@H](NC(=O)[C@@H]1CCC(=O)N1)C(=O)N[C@@H](CC(N)=O)C(=O)N[C@@H](Cc1ccccc1)C(=O)N[C@@H](CO)C(=O)N1CCC[C@H]1C(=O)N[C@@H](CO)C(=O)N[C@@H](Cc1c[nH]c2ccccc12)C(N)=O [Ani-AKH, 5-oxo-L-prolyl-L-valyl-L-asparaginyl-L-phenylalanyl-L-seryl-L-prolyl-L-seryl-L-Tryptophanamide] ([pGlu]VNFSPSW-NH2) | reverse | significantly reversed | significantly reversed this effect | significantly reversed this effect | significantly reversed this effect | increased the haemolymph lipid concentration |  |  |  | 
CC(C)[C@H](NC(=O)[C@@H]1CCC(=O)N1)C(=O)N[C@@H](CC(N)=O)C(=O)N[C@@H](Cc1ccccc1)C(=O)N[C@H](C(=O)N1CCC[C@H]1C(=O)N[C@@H](CO)C(=O)N[C@@H](Cc1c[nH]c2ccccc12)C(N)=O)[C@@H](C)O [Lia-AKH, 5-oxo-L-prolyl-L-valyl-L-asparaginyl-L-phenylalanyl-L-threonyl-L-prolyl-L-seryl-L-Tryptophanamide] ([pGlu]VNFTPSW-NH2) | reverse | partial effect | significantly reversed this effect | significantly reversed this effect | significantly reversed this effect |  |  |  |  | 
C[C@]12N[C@H](Cc3ccccc31)c1ccccc12 [MK-801, (5S,10R)-(+)-5-methyl-10,11-dihydro-5H-dibenzo(a, d)-cyclo-hepten-5,10-imine maleate] |  |  |  |  |  |  | significantly increased locomotion | significantly decreased maximum time of avoidance | significantly increased number of entries | significantly increased number of shocks
CC(C)C[C@H](NC(=O)[C@@H]1CCC(=O)N1)C(=O)N[C@H](C(=O)N[C@@H](Cc1ccccc1)C(=O)N[C@@H](CO)C(=O)N1CCC[C@H]1C(=O)N[C@@H](CC(=O)O)C(=O)N[C@@H](Cc1c[nH]c2ccccc12)C(N)=O)[C@@H](C)O [Pht-HrTH, 5-oxo-L-prolyl-L-leucyl-L-threonyl-L-phenylalanyl-L-seryl-L-prolyl-L-alfa-aspartyl-L-Tryptophanamide] ([pGlu]LTFSPDW-NH2) | reverse | no reversing effect | significantly reversed this effect | significantly reversed this effect | significantly reversed this effect |  |  |  |  | 
